Measurements taken from patent publication US20240342216A1, “METHODS OF TREATING CANCER” (Therapeutics By Design, LLC, priority 2021, published 2024).
Entries after “also recorded” stand apart in the source; their conditions may differ.

B1: BMP-7: bone morphogenetic protein-7, member of the transforming growth factor-beta superfamily (protein, UniProt P18075 293-431, looked up)
Bone morphogenetic protein 7: STGSKQRSQNRSKTPKNQEALRMANVAENSSSDQRQACKKHELYVSFRDLGWQDWIIAPEGYAAYYCEGECAFPLNSYMNATNHAIVQTLVHFINPETVPKPCCAPTQLNAISVLYFDDSSNVILKKYRNMVVRACGCH

Experiments:
[1] = tested on: human breast cancer stem cells; assay: mammosphere (tumorsphere) formation assay, self-renewal in vitro; format: cell-based; conditions: for inhibition of mammosphere / tumorsphere formation: non-adherent culture, serum-free stem cell medium, 5 to 7 days
Protocol: Isolated human breast cancer stem cells treated with BMP-7 (500 ng/ml) for 7 days in non-adherent culture.
To investigate Peptide 123 (SEQ ID NO: 1) and BMP-7 effects on cancer stem cell function, their ability to influence self-renewal in vitro by using the mammosphere assay was examined. The mammosphere assay was developed as a method to propagate mammary epithelial stem cells (MaSC) in vitro by Dontu et al. (Genes Dev 17: 1253-1270 (2003)).
A procedure as described in manufacturer's manual (ProMab, California) was followed to grow cancer stem cells into mammospheres. For mammosphere culture, isolated human breast cancer stem cells were seeded in six well ultralow adherence plates (Corning Inc., Corning, NY, USA) and grown as non-adherent cell suspensions in serum-free stem cell culture medium (ProMab, California). Primary and secondary mammosphere formation was achieved by using weekly trypsinization and dissociation, followed by reseeding in ultralow adherence six well plates.

[2] = tested on: human breast cancer stem cells; assay: FACS quantification of CD44+ and E-cadherin+ cells; format: cell-based; conditions: for percent loss of CD44+ cells / percent gain in E-cadherin+ cells: non-adherent culture 8 days, vs untreated; for change in CD44+ cells (stem cell phenotype), in words / change in E-Cadherin+ cells (epithelial phenotype), in words: vs untreated control
Protocol: Untreated cells were incubated with APC labeled mouse anti-human antibody to CD44 antibody and FITC labeled rat anti-human E-Cadherin antibody. Cells were gated to exclude events in water and events due to cell death and debris. Cells were then gated to identify CD44+ and E-Cadherin+ populations based on corresponding fluorescence activity and labeled R7 and R11 respectively. […] Untreated cells were incubated with corresponding isotype antibodies, APC labeled mouse IgG1 and FITC labeled mouse IgG1. Cells were gated to exclude events in water and events due to cell death and debris.
(§1) Cells were plated and incubated for 24 hours to form tumorspheres. On day 2, cells were treated with 300 μM P123, followed by subsequent treatments on days 3, 5, and 8. Cells were then incubated with APC labeled mouse anti-human CD44 antibody and FITC labeled rat anti-human E-Cadherin antibody. Cells were gated to exclude events in water and events due to cell death and debris. Cells were then gated to identify CD44+ and E-Cadherin+ populations based on corresponding fluorescence activity and labeled R7 and R11 respectively. […] Cells were treated with P123 as described in (A). Cells were then incubated with corresponding isotype antibodies, APC labeled mouse IgG1 and FITC labeled mouse IgG1. Cells were gated to exclude events in water and events due to cell death and debris.
as §1, with “BMP-7 at 430 ng/ml with” for “300 μM P123, followed by”, “treatments at 362 ng/ml” for “treatments”, “day” for “days”, “3, 314 ng/ml on day” for “3,”, “277 ng/ml on day 8 (media was added at 10% volume resulting in decreased concentrations).” for “8.”, “BMP-7” for “P123”
Differentiation of chemo-resistant cancer stem cells, specifically a loss of its stem cell phenotype and self-renewal ability, could be a viable approach to the treatment of tumor recurrence and metastasis (Chirasani S R, Sternjak A, Wend P, et al. Bone morphogenetic protein-7 release from endogenous neural precursor cells suppresses the tumourigenicity of stem-like glioblastoma cells. Brain 2010, 133:1961-1972). Although this approach may or may not directly kill the cancer cells, it could make CSCs more responsive to conventional chemotherapies. Therefore, Peptide 123 and BMP-7 were examined to determine if they affected differentiation of human breast cancer stem cells. Sensitive flow cytometry method (Gupta V et al., Methods Mol Biol. 2011, 716: 179-191) to quantify CD44+, indicating stem cell phenotype, and E-cadherin+, indicating epithelial phenotype cells, after treatment with or without P123 (SEQ ID NO: 1) and BMP-7. Human breast cancer stem cells were grown in non-adherent cell suspension in serum-free medium for 8 Days. […] Importantly, the percent loss of CD44+ cells after treatment with the P123, 50%, was greater than that after treatment with BMP-7, 19% (FIGS. 4 and 5). Furthermore, a gain in E-cadherin+ cells was observed, which was proportional to the loss of CD44+ cells (FIGS. 4-6). Similarly, the percent gain in E-cadherin+ cells after treatment with P123, 50%, was greater than that after treatment with BMP-7, 19%, (FIG. 7).

[3] = tested on: bulk tumor cell growth from prostate cancer; conditions: by activating SMAD 1/5/8 signaling; Bosukonda et al. 2009; cited from earlier work

| Molecule | inhibition of mammosphere / tumorsphere formation ([1]; 300 μM) | inhibition of mammosphere / tumorsphere formation ([1]; 300 μM, listed as P123) | percent loss of CD44+ cells ([2]; 300 uM, treated days 2, 3, 5, 8) | percent gain in E-cadherin+ cells ([2]; 300 uM) | change in CD44+ cells (stem cell phenotype), in words ([2]; 300 uM, listed as P123) | change in E-Cadherin+ cells (epithelial phenotype), in words ([2]; 300 uM, listed as P123) | inhibition of bulk tumor cell growth from prostate cancer [3] | mammosphere formation after withdrawal of treatment ([1]; 500 ng/ml for 7 days, then 7 days with no treatment) | inhibition of mammosphere / tumorsphere formation ([1]; 500 ng/ml) | percent gain in E-cadherin+ cells ([2]; 314-430 ng/ml) | percent loss of CD44+ cells ([2]; 314-430 ng/ml) | change in CD44+ cells (stem cell phenotype), in words ([2]; 314-430 ng/ml) | change in E-Cadherin+ cells (epithelial phenotype), in words ([2]; 314-430 ng/ml) |
| --- | --- | --- | --- | --- | --- | --- | --- | --- | --- | --- | --- | --- | --- |
| CYFDDSSNVLCKKYRS [Peptide 123, TDFRP, a peptide agonist of BMP signaling] | profound inhibition of tumorsphere formation | profound inhibition of mammosphere formation | 50% | 50% | marked decline in CD44+ cells; also recorded: marked decrease in CD44+ cells | marked increase in E-Cadherin+ cells; also recorded: majority of P123 treated cells were E-Cadherin+ | capable of inhibiting bulk tumor cell growth from prostate cancer | – | – | – | – | – | – |
| B1 | – | – | – | – | – | – | – | regained the ability to form tumorspheres; also recorded: significant increase in Mammosphere formation | inhibited tumorsphere formation; also recorded: moderate inhibition of mammosphere formation | 19% | 19% | marked decline in CD44+ cells; also recorded: a decrease in CD44+ cells | an increase in E-Cadherin cells; also recorded: an increase E-Cadherin+ with a large portion of CD44+ remaining |
